In US5240696A, “Treatment of periodontitis” (Chesebrough-Pond's USA Co., Division of Conopco, Inc., priority 1991, dated 1993):
Read-outs that look alike come from different tables or passages of the source.

Key:
Neonatal mouse calvaria [1] = assay: Bone loss in vitro: calcium release from calvaria stimulated with thrombin; format: cell-based
Protocol: (§1) The experimental method used is fully described in Meghi,S et al. Brit. J. Cancer (1988) 58, pp 17-21. Neonatal mouse calvaria were isolated with minimum trauma and maintained in a nutrient medium appropriate for cell culture (DMEM+15% horse serum) at […] in 100% humidity, the medium also containing the materials under test. The pH was maintained in an atmosphere of 5% CO2. After 24 h the medium was discarded, the calvaria were divided into control and test groups, and the medium was replaced with fresh medium containing the materials under test. Prostaglandin E2 (PGE2, 10^-6 M) was added with or without Triclosan as appropriate to stimulate the release of calcium ions (i.e. bone resorption) from the calvaria. After two days further culture in the test media the release of calcium into the medium from the calvaria was determined by atomic absorption spectroscopy. Calcium release is a measure of bone resorption (i.e. degradation of bone) regulated by the specialised cells (osteoblasts and osteoclasts) on the bone surface. Net calcium release was obtained by subtracting the basal medium calcium level.
The test method of Example 2 was repeated, using thrombin, however, as bone loss stimulator, and using indomethacin as a cyclo-oxygenase inhibitor as control.
The procedure of Example 3 was repeated, also using zinc citrate as addition.

cyclo-oxygenase = biological target: T1, cyclo-oxygenase (Ovis aries, UniProt P05979); assay: cyclo-oxygenase assay (oxygen consumption, Clark oxygen electrode); format: biochemical, sheep
T1 construct: microsomal enzyme fraction, obtained from a 220,000 x g precipitate of a homogenate of sheep vesicular glands; from tissue; host or cells: sheep vesicular glands (lyophilized microsomal fraction, 220,000 x g precipitate)
T1 sequence (P05979 25-600): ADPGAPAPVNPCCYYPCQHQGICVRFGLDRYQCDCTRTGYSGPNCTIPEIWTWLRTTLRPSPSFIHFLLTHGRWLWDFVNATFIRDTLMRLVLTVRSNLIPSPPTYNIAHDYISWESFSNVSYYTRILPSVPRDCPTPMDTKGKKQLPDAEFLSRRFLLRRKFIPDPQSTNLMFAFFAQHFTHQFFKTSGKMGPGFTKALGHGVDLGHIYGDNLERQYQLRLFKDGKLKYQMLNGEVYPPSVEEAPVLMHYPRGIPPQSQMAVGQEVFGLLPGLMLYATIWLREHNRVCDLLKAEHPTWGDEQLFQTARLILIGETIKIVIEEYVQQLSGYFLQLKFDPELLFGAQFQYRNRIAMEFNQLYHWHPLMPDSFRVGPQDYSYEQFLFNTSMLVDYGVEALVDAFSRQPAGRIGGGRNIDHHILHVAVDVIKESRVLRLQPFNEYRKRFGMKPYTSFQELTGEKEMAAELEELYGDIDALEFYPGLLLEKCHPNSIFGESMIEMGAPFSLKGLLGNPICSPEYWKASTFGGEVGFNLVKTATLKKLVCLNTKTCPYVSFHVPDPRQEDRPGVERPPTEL
Protocol: In vitro experiments were carried out to determine the I50 value of various cyclo-oxygenase inhibitors. […] These experiments were carried out as described in the general method given below, keeping the enzyme and substrate concentrations constant and using increasing inhibitor concentrations. Determinations at each inhibitor concentrations were carried out in duplicate.
The cyclo-oxygenase assay was carried out according to the method described by van der Ouderaa et al., "Methods in Enzymology" 86, page 60-68 (Academic Press Inc., 1982).
0.1M Tris-HCl (pH 8.0) kept at 25° C. and continuously aerated by bubbling air through the solution.
20 mg/ml in toluene kept under nitrogen at -20° C.
0.5 ml of stock solution was taken and the toluene removed under a stream of nitrogen. The substrate was suspended in 10 ml of incubation buffer, freshly prepared each day and kept at room temperature.
500 mg of dry lyophilized microsomal enzyme fraction, obtained from a 220,000 x g precipitate of a homogenate of sheep vesicular glands, was dispersed in 10 ml of incubation buffer for 5 min. using an Ultra Turrax homogeniser. The suspension was kept in ice throughout the experiment and shaken well before each sample was withdrawn.
0.23 mM in distilled water freshly prepared each day and kept on ice.
0.1 mM made up in incubation buffer, freshly prepared each day and kept on ice.
The cyclo-oxygenase activity was measured at 25° C. by monitoring the oxygen consumption as a result of cyclo-oxygenation of the substrate using a Clark oxygen electrode.
A typical experimental run was carried out as follows.
The mixture was then stirred for 5 min. to allow temperature equilibrium and to achieve a steady baseline on the chart recorder monitoring the dissolved oxygen concentration. Substrate solution (100 μl) was quickly injected into the cell to start the reaction and the oxygen consumption was typically monitored for 5 min. following addition of substrate.
The cyclo-oxygenase activity of the sample was calculated from the oxygen consumption curve assuming that maximum deflection of the recorder corresponds to 0.26 mM dissolved oxygen in the buffer and that 2 moles of oxygen are consumed per mole of substrate. The linear part of the sigmoid curve of oxygen consumption was used for initial-rate calculations.
The experiments were standardised by measuring the activity of the enzyme stock solution before and after each set of kinetic experiments and normalizing results to the mean activity.
Triclosan was dissolved in ethanol; AN-10 and APCF3-8 were dissolved in polyethyleneglycol (MW 400) and sodium salicylate was used as an aqueous solution. The concentration of the inhibitor solutions were adjusted so that only 10 μl of the inhibitor solution was added.

[2] = system: Actinobacillus actinomycetemcomitans; assay: MIC-value of Triclosan for periodontal micro organisms; format: cell-based
Neonatal mouse calvaria [3] = assay: Bone loss in vitro: calcium release from calvaria stimulated with PGE2; format: cell-based; conditions: Example 2
Protocol: as §1

[4] = Retention by gingival tissue following topical application; conditions: in vitro and in vivo
[5] = sheep vesicular gland microsomal enzyme, 8,11,14-eicosatrienoic acid substrate, 25° C., pH 8.0, read-out: I50 (concentration of inhibitor which gives 50% inhibition of cyclo-oxygenase activity)

Q: What does the source list for thrombin?
A: Net Calcium Release (Neonatal mouse calvaria [1]; Example 3, + thrombin alone): 3.9 mg/dL; Net Calcium Release (Neonatal mouse calvaria [1]; Example 4, thrombin alone): 2.4 mg/dL

Q: With `O=C([O-])CC(O)(CC(=O)[O-])C(=O)[O-].O=C([O-])CC(O)(CC(=O)[O-])C(=O)[O-].[Zn+2].[Zn+2].[Zn+2]` [zinc citrate] as the molecule, how does the “Net Calcium Release” value (Neonatal mouse calvaria [1]; Example 4, + thrombin and 1.10^-4 M zinc citrate) read?
A: 1.3 mg/dL

Q: And the “Net Calcium Release” value (Neonatal mouse calvaria [1]; Example 4, + thrombin and 2.10^-4 M zinc citrate)?
A: 0.8 mg/dL

Q: And the “Net Calcium Release” value (Neonatal mouse calvaria [1]; Example 4, + thrombin and 5.10^-5 M zinc citrate)?
A: 1.4 mg/dL

Q: What does the source list for `COc1ccc2c(c1)c(CC(=O)O)c(C)n2C(=O)c1ccc(Cl)cc1` [indomethacin]?
A: Net Calcium Release (Neonatal mouse calvaria [1]; Example 3, + thrombin and 10^-6 M indomethacin): 0.4 mg/dL; Net Calcium Release (Neonatal mouse calvaria [1]; Example 4, + thrombin and 10^-6 M indomethacin): 0.0 mg/dL

Q: With `Oc1cc(Cl)ccc1Oc1ccc(Cl)cc1Cl` [Triclosan, 2',4,4'-trichloro-2-hydroxy-diphenyl-ether] as the molecule, how does the IC50 (cyclo-oxygenase) read?
A: 155 µM

Q: And the anti-cyclo-oxygenase activity (cyclo-oxygenase; in words)?
A: considerable anti-cyclo-oxygenase activity

Q: What about the “anti-inflammatory potency compared with the preferred substituted salicylamides” value (cyclo-oxygenase; in words, salicylamides of U.S. Pat. No. 4,742,083) of the same molecule?
A: much more potent anti-inflammatory agent than the preferred substituted salicylamides

Q: And the MIC-value [2]?
A: 0.0005%

Q: What about the “Net Calcium Release” value (Neonatal mouse calvaria [3]; + PGE2 (10^-6 M) and 1.10^-5 Triclosan) of the same molecule?
A: 1.4 mg/dL

Q: And the “Net Calcium Release” value (Neonatal mouse calvaria [3]; + PGE2 (10^-6 M) and 2.5.10^-5 M Triclosan)?
A: -0.1 mg/dL

Q: And the “Net Calcium Release” value (Neonatal mouse calvaria [1]; Example 3, + thrombin and 1.10^-5 M Triclosan)?
A: 0.2 mg/dL

Q: And the “Net Calcium Release” value (Neonatal mouse calvaria [1]; Example 3, + thrombin and 5.10^-5 M Triclosan)?
A: -0.6 mg/dL

Q: What about the “Net Calcium Release” value (Neonatal mouse calvaria [1]; Example 4, + thrombin and 5.10^-6 M Triclosan) of the same molecule?
A: 0.75 mg/dL

Q: And the “retention by gingival tissue” value [4]?
A: retained by gingival tissue both in vitro and in vivo

Q: With `CCCCCCCC(=O)c1ccc(O)c(C(=O)Nc2cccc(C(F)(F)F)c2)c1` [APCF3-8, 5-n-octanoyl-'trifluoromethylphenyl-salicylanilide] as the molecule, how does the IC50 (cyclo-oxygenase; [5]) read?
A: 240 µM

Q: With `CCCCC[C@H](O)/C=C/[C@H]1[C@H](O)CC(=O)[C@@H]1C/C=C\CCCC(=O)O` [PGE2, Prostaglandin E2] as the molecule, how does the “Net Calcium Release” value (Neonatal mouse calvaria [3]; PGE2 10^-6 M alone (positive control), two days culture) read?
A: 3.5 mg/dL

Q: With `CCCCCCCCCC(=O)c1ccc(O)c(C(=O)Nc2ccc([N+](=O)[O-])cc2)c1` [AN-10, 5-n-decanoyl-4'nitrosalicylanilide] as the molecule, how does the IC50 (cyclo-oxygenase; [5]) read?
A: 180 µM
